In brackets after ≈: the same amount, converted by molar mass.
Assay: physchem
Type: physicochemical
Details: 20 °C, water
Description: Compound A is 2-ethoxy-1-{[2′-(5-oxo-4,5-dihydro-1,2,4-oxadiazol-3-yl)biphenyl-4-yl]methyl}-1H-benzimidazole-7-carboxylic acid (melting point: 191° C., solubility in water at 20° C. of about 0.006 g/L). In the following Examples and Reference Examples, the Japanese Pharmacopoeia 14th Edition or Japanese Pharmaceutical Excipients 2003 compatible products were used as the preparation additives. Of the preparation additives, while magnesium stearate is also the Japanese Pharmacopoeia 14th Edition compatible product, like other preparation additives, it particularly has a stearic acid content ratio of not less than about 90% (Taihei Chemical Industrial Co., Ltd.).

solubility: ~6 µg/mL (≈ 13.1 µM)
SMILES: CCOc1nc2cccc(C(=O)O)c2n1Cc1ccc(-c2ccccc2-c2noc(=O)[nH]2)cc1 [Compound A, 2-ethoxy-1-{[2′-(5-oxo-4,5-dihydro-1,2,4-oxadiazol-3-yl)biphenyl-4-yl]methyl}-1H-benzimidazole-7-carboxylic acid]

— patent US20100016382A1, “PHARMACEUTICAL COMPOSITION” (TAKEDA PHARMACEUTICAL COMPANY LIMITED, priority 2006, published 2010)
